From patent publication US8188150B2, “Use of beta-aminoalcohols in the treatment of inflammatory disorders and pain” (Biocopea Limited, priority 2006, dated 2012)

Experiments:
[1] = tested on: inflammation induced by carrageenan paw injection; experiment: Carrageenan Paw Assay; format: in vivo, male Wistar rats; details: oral gavage, half an hour before 2% carrageenan; paw measured at 1-5 hours
Method: Fasted (18 hour) male Wistar rats (105-130 g) were weighed and a basal mercury plethysmometer reading was taken of the right hind paw by submerging the paw in the mercury up to the tibiotarsal joint. Subsequently, vehicles, reference items and test articles were administered by oral gavage (10 ml/kg). Half an hour after treatment 0.1 ml of 2% carrageenan in 0.9% saline was injected into the subplanatar area of the right hind paw. The right paw was measured again with the plethysmometer at 1, 2, 3, 4 and 5 hours after carrageenan administration.

IL-10 = experiment: LPS Mouse Assay, serum IL-10 by ELISA; format: in vivo, Balb C ByJ mice; details: i.p. or oral, 30 minutes before 1 mg/kg LPS i.p.; serum 2 hours after LPS
Method: (§1) 7 week-old Balb C ByJ mice (24-28 g) were administered, either by i.p. (5 ml/kg) or oral (10 ml/kg) administration, with vehicle or test article. 30 minutes later these animals were challenged with an intraperitoneal injection of 1 mg/kg LPS. 2 hours after LPS challenge blood samples were collected under light isoflurane anaesthesia into normal tubes by retro-orbital puncture. Samples were allowed to clot at room temperature and then spun at 6000 g for 3 min at 4° C. Serum was stored at −20° C. until use. Serum TNFα and IL-10 levels were analysed in duplicate by ELISA technique.

TNFα = experiment: LPS Mouse Assay, serum TNFα by ELISA; format: in vivo, Balb C ByJ mice; details: i.p. or oral, 30 minutes before 1 mg/kg LPS i.p.; serum 2 hours after LPS
Method: as §1

CC(C)(CO)NCC(=O)c1cc(Cl)c(N)c(Cl)c1 [Compound (3), 1-(4-Amino-3,5-dichlorophenyl)-2-(1-hydroxy-2-methylpropan-2-ylamino)ethanone]
effect on inflammation induced by carrageenan paw injection [1]: dose-dependant inhibitory effect | effect on serum IL-10 (IL-10): potentiating effects | effect on serum TNFα (TNFα): strong inhibitory effects
